Measurements taken from US7576091B2, “Thiazolo-, oxazalo and imidazolo-quinazoline compounds capable of inhibiting protein kinases” (Cyclacel Limited, priority 2003, dated 2009).

Experiments:
[1] = target: Cyclin E - CDK2 (Homo sapiens, UniProt P24941); assay: Cyclin E - CDK2 kinase inhibition assay; format: biochemical; conditions: [ATP] = 100 μM
Procedure: (§1) Compounds were tested in cyclin-CDK kinase assays and cytotoxicity assays against human tumour cell lines (72-h MTT assay) as previously described.

[2] = test system: HT29; assay: 72-h MTT cytotoxicity assay, HT29; format: cell-based; conditions: HT-29, HT29 human tumour cell line
Procedure: as §1

[3] = target: Cyclin D1 - CDK4 (Homo sapiens, UniProt P11802); assay: Cyclin D1 - CDK4 kinase inhibition assay; format: biochemical; conditions: [ATP] = 100 μM
Procedure: as §1

[4] = test system: A549; assay: 72-h MTT cytotoxicity assay, A549; format: cell-based; conditions: A549 human tumour cell line
Procedure: as §1

[5] = target: Cyclin H - CDK7 (Homo sapiens, UniProt P50613); assay: Cyclin H - CDK7 kinase inhibition assay; format: biochemical; conditions: [ATP] = 100 μM
Procedure: as §1

[6] = target: Cyclin A - CDK2 (Homo sapiens, UniProt P24941); assay: Cyclin A - CDK2 kinase inhibition assay; format: biochemical; conditions: [ATP] = 100 μM
Procedure: as §1

[7] = target: Cyclin T - CDK9 (Homo sapiens, UniProt P50750); assay: Cyclin T - CDK9 kinase inhibition assay; format: biochemical; conditions: [ATP] = 100 μM
Procedure: as §1

[8] = target: Cyclin B - CDK1 (Homo sapiens, UniProt P06493); assay: Cyclin B - CDK1 kinase inhibition assay; format: biochemical; conditions: [ATP] = 100 μM
Procedure: as §1

[9] = test system: Saos-2; assay: 72-h MTT cytotoxicity assay, Saos-2; format: cell-based; conditions: Saos-2 human tumour cell line
Procedure: as §1

Cyclin H - CDK7, sequence (P50613 whole entry): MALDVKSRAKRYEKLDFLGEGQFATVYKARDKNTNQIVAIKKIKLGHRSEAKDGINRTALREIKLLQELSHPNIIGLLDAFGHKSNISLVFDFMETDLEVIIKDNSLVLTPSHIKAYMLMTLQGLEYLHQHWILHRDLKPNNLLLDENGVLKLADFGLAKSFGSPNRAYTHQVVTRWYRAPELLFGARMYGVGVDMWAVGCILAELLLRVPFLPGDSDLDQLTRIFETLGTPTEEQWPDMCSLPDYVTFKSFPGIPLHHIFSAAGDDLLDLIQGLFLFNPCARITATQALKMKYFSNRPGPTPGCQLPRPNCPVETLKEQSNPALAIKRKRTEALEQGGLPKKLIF
Cyclin H - CDK7, sequence (P51946 whole entry partner): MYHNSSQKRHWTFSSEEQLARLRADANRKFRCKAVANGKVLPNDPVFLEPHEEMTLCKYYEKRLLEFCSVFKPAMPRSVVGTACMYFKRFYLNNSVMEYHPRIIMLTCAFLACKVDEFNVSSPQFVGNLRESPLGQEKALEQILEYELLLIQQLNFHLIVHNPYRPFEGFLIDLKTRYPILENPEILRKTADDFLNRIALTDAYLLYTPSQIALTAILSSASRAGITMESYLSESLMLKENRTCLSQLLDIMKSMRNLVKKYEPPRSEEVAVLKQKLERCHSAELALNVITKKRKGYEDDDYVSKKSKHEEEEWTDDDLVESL
Cyclin B - CDK1, sequence (P06493 whole entry): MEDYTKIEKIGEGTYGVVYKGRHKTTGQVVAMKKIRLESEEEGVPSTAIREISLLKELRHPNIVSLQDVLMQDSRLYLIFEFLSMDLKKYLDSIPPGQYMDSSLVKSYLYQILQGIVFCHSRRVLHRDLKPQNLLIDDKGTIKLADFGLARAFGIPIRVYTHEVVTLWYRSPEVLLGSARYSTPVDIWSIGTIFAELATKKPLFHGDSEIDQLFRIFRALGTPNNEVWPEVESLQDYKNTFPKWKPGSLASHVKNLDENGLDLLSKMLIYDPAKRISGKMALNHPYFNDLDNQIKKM
Cyclin B - CDK1, sequence (P14635 whole entry partner): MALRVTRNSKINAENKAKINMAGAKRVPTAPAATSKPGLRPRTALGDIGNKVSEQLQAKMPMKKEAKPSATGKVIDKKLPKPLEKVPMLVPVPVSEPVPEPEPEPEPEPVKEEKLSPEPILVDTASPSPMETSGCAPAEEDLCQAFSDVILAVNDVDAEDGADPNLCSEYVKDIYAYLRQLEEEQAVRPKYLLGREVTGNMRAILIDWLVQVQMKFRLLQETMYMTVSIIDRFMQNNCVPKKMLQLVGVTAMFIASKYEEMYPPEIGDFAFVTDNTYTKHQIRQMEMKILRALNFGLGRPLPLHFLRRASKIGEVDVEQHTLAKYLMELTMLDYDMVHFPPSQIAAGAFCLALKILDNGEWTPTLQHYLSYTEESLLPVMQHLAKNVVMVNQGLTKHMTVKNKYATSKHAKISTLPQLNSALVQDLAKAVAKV
Cyclin D1 - CDK4, sequence (P11802 whole entry): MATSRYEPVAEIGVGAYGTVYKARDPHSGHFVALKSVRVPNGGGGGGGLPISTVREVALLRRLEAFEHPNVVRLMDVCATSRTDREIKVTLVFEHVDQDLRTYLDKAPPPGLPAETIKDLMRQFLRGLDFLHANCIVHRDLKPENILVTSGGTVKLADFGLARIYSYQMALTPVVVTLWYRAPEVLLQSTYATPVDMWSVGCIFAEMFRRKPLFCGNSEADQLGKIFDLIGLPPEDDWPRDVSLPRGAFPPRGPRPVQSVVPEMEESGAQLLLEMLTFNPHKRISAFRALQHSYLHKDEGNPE
Cyclin D1 - CDK4, sequence (P24385 whole entry partner): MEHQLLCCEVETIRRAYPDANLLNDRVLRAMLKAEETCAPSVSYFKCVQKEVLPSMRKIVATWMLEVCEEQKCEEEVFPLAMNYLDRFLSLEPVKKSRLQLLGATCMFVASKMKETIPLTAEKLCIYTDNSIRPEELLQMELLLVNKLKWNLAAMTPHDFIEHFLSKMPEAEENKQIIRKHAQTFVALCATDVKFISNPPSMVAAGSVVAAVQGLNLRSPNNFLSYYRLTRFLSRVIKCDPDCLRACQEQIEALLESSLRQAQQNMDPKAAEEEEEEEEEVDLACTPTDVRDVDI
Cyclin T - CDK9, sequence (P50750 whole entry): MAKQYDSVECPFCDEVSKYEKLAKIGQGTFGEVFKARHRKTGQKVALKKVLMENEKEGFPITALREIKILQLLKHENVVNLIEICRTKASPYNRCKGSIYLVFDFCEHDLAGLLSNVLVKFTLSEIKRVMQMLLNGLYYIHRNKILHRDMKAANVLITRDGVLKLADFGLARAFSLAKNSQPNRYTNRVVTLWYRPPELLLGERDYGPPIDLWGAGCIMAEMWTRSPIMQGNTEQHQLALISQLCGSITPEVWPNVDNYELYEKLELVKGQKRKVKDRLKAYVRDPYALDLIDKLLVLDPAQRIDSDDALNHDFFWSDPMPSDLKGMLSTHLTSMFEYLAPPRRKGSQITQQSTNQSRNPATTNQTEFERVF
Cyclin T - CDK9, sequence (O60563 whole entry partner): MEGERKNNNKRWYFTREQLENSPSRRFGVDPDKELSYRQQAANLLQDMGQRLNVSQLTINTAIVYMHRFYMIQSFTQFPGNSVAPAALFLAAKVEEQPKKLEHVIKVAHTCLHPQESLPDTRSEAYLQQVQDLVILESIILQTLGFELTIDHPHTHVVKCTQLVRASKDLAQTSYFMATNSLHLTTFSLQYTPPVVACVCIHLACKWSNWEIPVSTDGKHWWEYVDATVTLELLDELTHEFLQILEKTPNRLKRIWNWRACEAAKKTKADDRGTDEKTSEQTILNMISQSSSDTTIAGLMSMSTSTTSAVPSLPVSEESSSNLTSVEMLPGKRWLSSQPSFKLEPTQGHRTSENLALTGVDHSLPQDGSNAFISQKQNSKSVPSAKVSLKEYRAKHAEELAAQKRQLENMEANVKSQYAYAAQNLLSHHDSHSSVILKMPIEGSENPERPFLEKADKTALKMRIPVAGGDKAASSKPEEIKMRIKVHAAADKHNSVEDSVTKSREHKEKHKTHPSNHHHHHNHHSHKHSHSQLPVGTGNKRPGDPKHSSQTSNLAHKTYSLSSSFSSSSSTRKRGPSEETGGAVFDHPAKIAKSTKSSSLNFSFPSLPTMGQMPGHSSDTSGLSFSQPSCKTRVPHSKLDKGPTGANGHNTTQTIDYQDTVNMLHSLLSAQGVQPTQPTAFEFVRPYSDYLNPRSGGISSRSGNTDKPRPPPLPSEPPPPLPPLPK

Row | Structure (SMILES) | IC50 [1] [nM] | IC50 [3] [nM] | IC50 [5] [nM] | IC50 [6] [nM] | IC50 [7] [nM] | IC50 [8] [nM] | IC50 [2] [µM] | IC50 [4] [µM] | IC50 [9] [µM]
1 | Cc1nc2ccc3cnc(N(C)c4cccc([N+](=O)[O-])c4)nc3c2s1 [Cpd 10, Methyl-(2-methyl-thiazolo[4,5-h]quinazolin-8-yl)-(3-nitro-phenyl)-amine] | 3200 ± 800 | > 40000 | 44000 ± 11000 | 47000 ± 20000 | > 100000 | 22000 ± 8000 | > 40 | > 40 | > 40
2 | Cc1nc2c(s1)-c1nc(Nc3ccc(Cl)nc3)ncc1CC2 [Cpd 7, (6-Chloro-pyridin-3-yl)-(2-methyl-4,5-dihydro-thiazolo[4,5-h]quinazolin-8-yl)-amine] | 49 ± 2 | 75 | 2800 ± 600 | 14 ± 6 | 4100 ± 1700 | 58 ± 46 | 4 ± 0.1 | 3.3 ± 0.3 | 4.9 ± 3.4
3 | Cc1nc2c(s1)-c1nc(Nc3ccc(C(F)(F)F)cc3)ncc1CC2 [Cpd 2, (2-Methyl-4,5-dihydro-thiazolo[4,5-h]quinazolin-8-yl)-(4-trifluoromethyl-phenyl)-amine] | 400 ± 100 | 9200 ± 1300 | > 100000 | 4200 ± 900 | 6100 | 2800 ± 700 | 7.1 ± 1.3 | 2.8 ± 1 | 4.4 ± 1.8
4 | Cc1nc2c(s1)-c1nc(Nc3ccc(N(C)C)cc3)ncc1CC2 [Cpd 6, N,N-Dimethyl-N′-(2-methyl-4,5-dihydro-thiazolo[4,5-h]quinazolin-8-yl)-benzene-1,4-diamine] | 21 ± 1 | 70 ± 20 | 130 ± 30 | 58 ± 7 | 2100 ± 700 | 7500 ± 6300 | 3.6 ± 1 | 8 ± 4 | 5.3 ± 1.9
5 | Cc1nc2ccc3cnc(Nc4ccccc4)nc3c2s1 [Cpd 12, (2-Methyl-thiazolo[4,5-h]quinazolin-8-yl)-phenyl-amine] | 48 ± 13 | 5000 ± 4000 | > 20000 | 4300 ± 2500 | – | 5200 ± 1300 | – | – | –
6 | Nc1nc2c(s1)-c1nc(Nc3cccc([N+](=O)[O-])c3)ncc1CC2 [Cpd 14, N^8-(3-Nitro-phenyl)-4,5-dihydro-thiazolo[4,5-h]quinazoline-2,8-diamine] | 1 ± 1 | 250 ± 120 | – | 22 ± 10 | – | 54 ± 16 | – | – | –
7 | COc1ccc(Nc2ncc3c(n2)-c2sc(C)nc2CC3)cn1 [Cpd 8, (6-Methoxy-pyridin-3-yl)-(2-methyl-4,5-dihydro-thiazolo[4,5-h]quinazolin-8-yl)-amine] | 89 ± 16 | 220 ± 190 | 2300 ± 400 | 14 ± 12 | 3300 ± 1600 | 230 ± 190 | 4.7 ± 3.8 | 6 ± 5.1 | 5 ± 2.7
8 | Cc1nc2c(s1)-c1nc(Nc3ccc(O)cc3)ncc1CC2 [Cpd 5, 4-(2-Methyl-4,5-dihydro-thiazolo[4,5-h]quinazolin-8-ylamino)-phenol] | 2 ± 1 | 1000 | 640 ± 230 | 9 ± 3 | 1600 ± 800 | 600 ± 120 | 9.9 ± 1.2 | 4.2 ± 1.2 | 6.6 ± 5.8

Second part, led by results:

Row | IC50 [1] [nM] | IC50 [3] [nM] | IC50 [5] [nM] | IC50 [6] [nM] | IC50 [7] [nM] | IC50 [8] [nM] | Structure (SMILES) | IC50 [2] [µM] | IC50 [4] [µM] | IC50 [9] [µM]
9 | 1180 ± 30 | > 80000 | 3900 ± 1400 | 14000 ± 6000 | 39000 ± 19000 | 8000 ± 2000 | Cc1nc2c(s1)-c1nc(N(C)c3cccc([N+](=O)[O-])c3)ncc1CC2 [Cpd 9, Methyl-(2-methyl-4,5-dihydro-thiazolo[4,5-h]quinazolin-8-yl)-(3-nitro-phenyl)-amine] | > 20 | > 20 | > 20
10 | 1 ± 1 | 1680 ± 40 | > 20000 | 1700 | – | 2200 ± 700 | Cc1nc2c(s1)-c1nc(Nc3ccccc3)ncc1CC2 [Cpd 11, (2-Methyl-4,5-dihydro-thiazolo[4,5-h]quinazolin-8-yl)-phenyl-amine] | – | – | –
11 | 20 ± 10 | 1100 ± 700 | 110 ± 30 | 2 ± 1 | 13 | 1100 ± 400 | Cc1nc2c(s1)-c1nc(Nc3cccc(O)c3)ncc1CC2 [Cpd 3, 3-(2-Methyl-4,5-dihydro-thiazolo[4,5-h]quinazolin-8-ylamino)-phenol] | 9.4 ± 5.6 | 2.5 ± 1.2 | 2.3 ± 1.8
12 | 50 ± 40 | 3800 ± 600 | 1700 ± 500 | 560 ± 40 | 8 | 1000 ± 200 | Cc1nc2c(s1)-c1nc(Nc3cccc([N+](=O)[O-])c3)ncc1CC2 [Cpd 1, (2-Methyl-4,5-dihydro-thiazolo[4,5-h]quinazolin-8-yl)-(3-nitro-phenyl)-amine] | 1.4 ± 0.3 | 0.68 | 1.2 ± 0.7
13 | 400 ± 100 | > 100000 | 2200 ± 500 | 910 ± 590 | 520 ± 60 | 45000 ± 25000 | Cc1nc2c(s1)-c1nc(Nc3ccc(N4CCOCC4)cc3)ncc1CC2 [Cpd 4, (2-Methyl-4,5-dihydro-thiazolo[4,5-h]quinazolin-8-yl)-(4-morpholin-4-yl-phenyl)-amine] | 2.1 ± 2 | 3.5 ± 1.4 | 5 ± 0.8
14 | 0.7 | 610 ± 90 | 2500 ± 1000 | 920 ± 470 | 360 ± 140 | 1900 ± 700 | Nc1nc2c(s1)-c1nc(Nc3ccccc3)ncc1CC2 [Cpd 13, N^8-Phenyl-4,5-dihydro-thiazolo[4,5-h]quinazoline-2,8-diamine] | – | – | –
